Patent US20200121884A1, “BIOACTIVATION METHOD FOR ENHANCING NEURAL ACTIVITY AND BLOOD C[…] OF LIVING BODY” (Aqua Bank CO.,LTD., priority 2017, published 2020)

Key:
[1] = test system: healthy women in their 20's to 30's; conditions: 17 subjects, Table 4 and FIG. 5
Description: (§1) In the verification test using this method, hydrogen mainly produced by the hydrogen generating device (an electrolytic hydrogen gas suction tool 100 which will be described later) is orally suctioned. More specifically, hydrogen generated by the hydrogen generatingor device 100 is suctioned by spontaneous breathing for approximately 10 minutes. The amount of hydrogen generated per minute is 8 cc per minute by electrolysis (4 cc of oxygen is also generated at the same time) and thus, 12 cc per minute of a gas mixture of oxygen/hydrogen is generated. This gas mixture is suctioned by spontaneous breathing. […]
(§2) For an action of the central nervous activity by hydrogen, a brain stress test utilized for the purpose of evaluating an activity degree and a stress degree of the brain is conducted, and the brain activity degree (degree of fatigue) is measured by a flicker device. Moreover, influences of a sight function, a skin sensibility function, a gravity balance function and the like are measured by a brain executive function meter. […]
Actions to the brain executive functions (right-and-left cognitive function, sight function, short-time memory, skin sensibility, gravity balance and the like are comprehensively analyzed) are analyzed (measurement instrument: Brain executive function meter by Anima).

[2] = test system: healthy women in their 20's to 30's; conditions: 17 subjects, before vs after suctioning, Table 2 and FIG. 2
Description: as §1
By paying attention to a physiological reaction that a skin temperature of a distal end section (the forehead center part and a first knuckle-joint cushion side part of the index finger are measured this time) is changed in accordance with predominance of the sympathetic nervous activity, the change in the skin temperature is measured by a temperature sensor over time before and after drinking of the hydrogen solution. The temperature sensor body has an approximate size of a thickness of 1 mm and a diameter of 3 mm, and the change in the skin temperature is measured by a recorder in a wired manner from the sensor.

[3] = test system: healthy women in their 20's to 30's; conditions: 17 subjects, evaluation in score
Description: as §1, with “breathing. Normally, since an adult suctions approximately 5 litters of air per minute under spontaneous breathing, assuming that all the generated gas mixture is suctioned, the gas mixture at 0.24% at the maximum (hydrogen 0.18%, oxygen 0.06%) is contained in an expiratory air.” for “breathing.”
as §2

[4] = test system: healthy women in their 20's to 30's; conditions: 17 subjects, before vs after suctioning, Table 1 and FIG. 1
Description: (§3) In the verification test using this method, hydrogen mainly produced by the hydrogen generating device (an electrolytic hydrogen gas suction tool 100 which will be described later) is orally suctioned. More specifically, hydrogen generated by the hydrogen generatingor device 100 is suctioned by spontaneous breathing for approximately 10 minutes. The amount of hydrogen generated per minute is 8 cc per minute by electrolysis (4 cc of oxygen is also generated at the same time) and thus, 12 cc per minute of a gas mixture of oxygen/hydrogen is generated. This gas mixture is suctioned by spontaneous breathing. Normally, since an adult suctions approximately 5 litters of air per minute under spontaneous breathing, assuming that all the generated gas mixture is suctioned, the gas mixture at 0.24% at the maximum (hydrogen 0.18%, oxygen 0.06%) is contained in an expiratory air.
The subjects were 20 selected subjects, grouped into two groups, considering the ages and test time slots (morning and afternoon), and measurement was conducted for 10 subjects a day. […]

[5] = test system: healthy women in their 20's to 30's; conditions: 17 subjects, subjective five-grade evaluation, FIG. 6
Description: as §3
The subjects were 20 selected subjects, grouped into two groups, considering the ages and test time slots (morning and afternoon), and measurement was conducted for 10 subjects a day.
The testing method is as follows: • (1) In the main test, each subject should suction hydrogen. • (2) Tests/evaluations which will be described later shall be conducted for each subject while each subject is suctioning hydrogen, and by comparing/examining each evaluation before and after the suctioning, physiological effects by hydrogen is verified. • (3) For the subject who is sitting on a chair for measurement with his/her eyes open, a test manager or a test cooperator prepares a hydrogen generating tool (not generating hydrogen) which is a control and assigns it to the subject. The subject shall put his/her mouth to a nozzle 5 of an electrolytic hydrogen gas suction tool 100 which is this hydrogen generating device (see FIGS. 7 to 10) or a tube portion connected to that and normally breath for approximately 10 minutes. After that, each measurement which will be described later is conducted at any time. After that, the subject puts his/her mouth to the nozzle 5 of the electrolytic hydrogen gas suction tool 100 which generates hydrogen or the tube portion connected to that as a subject sample and suctions hydrogen for 10 minutes similarly. After that, each measurement is made. If abnormality is found in the subject while the subject is suctioning hydrogen, the test manager or the test cooperator shall immediately stop the suctioning. When the suctioning of hydrogen is stopped, the practitioner shall record the fact of the stop and suctioning time in a clinical report. • (4) The test manager shall check if a harmful phenomenon has occurred in the subject during the test or not.
For an action of the central nervous activity by hydrogen, a brain stress test utilized for the purpose of evaluating an activity degree and a stress degree of the brain is conducted, and the brain activity degree (degree of fatigue) is measured by a flicker device. Moreover, influences of a sight function, a skin sensibility function, a gravity balance function and the like are measured by a brain executive function meter. For a change in emotional feelings, an ability of concentration, sleepiness and the like are examined by interview by using a multilateral emotional state scale. The respective measurements will be described in brief below.

## [HH] [hydrogen]
[1]
  right-and-left cognitive function, change by hydrogen suctioning: remarkable improvement
  short-term memory, change by hydrogen suctioning: remarkable improvement
[2]
  peripheral skin temperature, change by hydrogen suctioning: significantly raised
[3]; Table 3 and FIG. 3
  brain stress, change by hydrogen suctioning: significantly decreased
[3]; Table 3 and FIG. 4
  brain rotation degree score, change by hydrogen suctioning: significantly raised
[4]
  pupil contraction rate (CR value), change by hydrogen suctioning: significantly increased
[5]
  fatigue feeling, change by hydrogen suctioning: decreased
  feeling of concentration, change by hydrogen suctioning: significantly raised
  feeling of exhilarating, change by hydrogen suctioning: significantly raised
  feeling of refreshing, change by hydrogen suctioning: significantly raised
  spontaneous stress, change by hydrogen suctioning: decreased
